# Source: BindingDB's records for doi:10.1016/j.bioorg.2014.05.010 (Ain Shams University, 2014)
# Target: Vascular endothelial growth factor receptor 2 (Homo sapiens, UniProt P35968)
# Experiment: In vitro Inhibition Assay
# Conditions: 30 °C
# Description: Assays are performed for 15 min at 30 °C, with 50 µM of P33-ATP in a final volume of 25 µL. The assays are terminated by spotting 20 µL of the reaction mixture onto a phosphocellulose P81 plate. The P81 plate was washed 3 times for ~15 min each in a 1% phosphoric acid solution to remove excess unreacted P33-ATP.
# Vascular endothelial growth factor receptor 2, sequence (P35968 whole entry): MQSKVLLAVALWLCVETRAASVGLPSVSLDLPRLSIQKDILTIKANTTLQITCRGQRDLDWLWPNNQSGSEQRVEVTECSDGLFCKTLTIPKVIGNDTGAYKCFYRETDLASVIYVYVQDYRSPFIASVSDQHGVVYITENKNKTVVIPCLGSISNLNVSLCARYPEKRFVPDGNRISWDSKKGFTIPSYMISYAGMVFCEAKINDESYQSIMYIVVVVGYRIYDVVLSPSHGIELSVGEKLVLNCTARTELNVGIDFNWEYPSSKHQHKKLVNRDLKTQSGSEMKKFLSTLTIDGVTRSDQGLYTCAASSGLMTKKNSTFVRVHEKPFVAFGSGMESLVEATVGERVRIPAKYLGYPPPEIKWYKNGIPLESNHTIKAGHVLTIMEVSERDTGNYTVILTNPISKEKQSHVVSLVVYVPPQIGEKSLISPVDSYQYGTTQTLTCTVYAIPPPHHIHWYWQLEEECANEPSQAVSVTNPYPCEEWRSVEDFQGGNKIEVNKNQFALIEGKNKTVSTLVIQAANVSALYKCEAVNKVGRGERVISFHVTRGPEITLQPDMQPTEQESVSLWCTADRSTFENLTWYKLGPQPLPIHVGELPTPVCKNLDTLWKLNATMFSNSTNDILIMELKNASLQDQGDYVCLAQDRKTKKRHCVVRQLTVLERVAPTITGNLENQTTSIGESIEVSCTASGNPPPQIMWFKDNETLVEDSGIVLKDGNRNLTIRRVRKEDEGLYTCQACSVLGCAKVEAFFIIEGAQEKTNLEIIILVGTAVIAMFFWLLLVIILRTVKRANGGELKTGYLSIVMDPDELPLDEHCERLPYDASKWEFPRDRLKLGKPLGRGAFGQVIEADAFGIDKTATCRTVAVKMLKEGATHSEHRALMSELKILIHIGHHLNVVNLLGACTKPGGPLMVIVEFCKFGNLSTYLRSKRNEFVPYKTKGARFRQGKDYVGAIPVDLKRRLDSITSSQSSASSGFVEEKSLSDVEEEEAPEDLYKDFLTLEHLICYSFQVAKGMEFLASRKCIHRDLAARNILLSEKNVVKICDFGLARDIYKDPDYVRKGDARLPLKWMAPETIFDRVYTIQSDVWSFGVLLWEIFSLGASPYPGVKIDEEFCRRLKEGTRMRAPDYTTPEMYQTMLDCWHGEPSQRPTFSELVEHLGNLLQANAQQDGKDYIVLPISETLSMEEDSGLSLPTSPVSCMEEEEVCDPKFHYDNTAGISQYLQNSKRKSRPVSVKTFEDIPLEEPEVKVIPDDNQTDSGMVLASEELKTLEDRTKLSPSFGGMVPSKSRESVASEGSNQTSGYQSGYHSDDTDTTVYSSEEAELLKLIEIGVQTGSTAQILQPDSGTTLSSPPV
row,SMILES,IC50
1,O=C(Nc1ccccc1)Nc1ccc(Nc2cnc3cc([N+](=O)[O-])ccc3n2)cc1 [1-(4-((6-Nitroquinoxalin-2-yl)amino)phenyl)-3-phenylurea (XXIa)],268 µM
2,COc1ccc(Nc2cnc3cc(NC(=O)Nc4cccc(C)c4)ccc3n2)cc1 [1-(2-((4-Methoxyphenyl)amino)quinoxalin-6-yl)-3-(m-tolyl) urea (XVIc)],210 µM

# Stronger by IC50, values ahead:
row,IC50,SMILES
1,10.3 µM,"COc1ccc(Nc2nc3ccc(NC(=O)Nc4ccccc4)cc3[nH]c2=O)cc1 [1-(2-((4-Methoxyphenyl)amino)-3-oxo-3,4 dihydroquinoxalin-6-yl)-3-phenylurea (VIIa)]"
2,85.4 µM,O=C(Nc1ccc(Nc2cnc3cc([N+](=O)[O-])ccc3n2)cc1)Nc1cccc(Cl)c1 [1-(3-Chlorophenyl)-3-(4-((6-nitroquinoxalin-2-yl)amino)-phenyl)urea (XXIb)]
3,61.8 µM,"COc1ccc(Nc2nc3ccc(NC(=O)c4ccccc4C(=O)O)cc3[nH]c2=O)cc1 [2-((2-((4-Methoxyphenyl)amino)-3-oxo-3,4-dihydroquinoxalin-6-yl)carbamoyl)benzoic acid (IX)]"
